Data taken from patent US10670605B2, “Cysteine reactive probes and uses thereof” (The Scripps Research Institute, priority 2015, dated 2020).

Legend:
Test in all cases: Competitive isoTOP-ABPP in situ (fragment-treated cells)
Format in all cases: cell-based
[1] = target: T1, cysteines in MDA-MB-231 and Ramos cells (Homo sapiens, UniProt Q15233)
T1 sequence (Q15233 1-471): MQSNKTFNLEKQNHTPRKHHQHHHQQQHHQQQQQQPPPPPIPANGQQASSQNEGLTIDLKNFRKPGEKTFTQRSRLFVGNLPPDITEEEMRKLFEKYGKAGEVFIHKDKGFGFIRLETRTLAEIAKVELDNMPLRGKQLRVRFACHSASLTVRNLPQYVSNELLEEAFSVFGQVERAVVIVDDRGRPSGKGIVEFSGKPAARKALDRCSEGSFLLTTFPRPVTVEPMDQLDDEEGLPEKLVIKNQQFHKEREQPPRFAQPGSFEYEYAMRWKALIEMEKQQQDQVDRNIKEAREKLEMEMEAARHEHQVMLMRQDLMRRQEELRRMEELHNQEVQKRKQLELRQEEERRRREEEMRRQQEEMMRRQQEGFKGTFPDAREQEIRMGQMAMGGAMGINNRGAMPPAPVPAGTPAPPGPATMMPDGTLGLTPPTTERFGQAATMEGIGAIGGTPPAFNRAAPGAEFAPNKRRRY

[2] = target: T2, cysteines in MDA-MB-231 and Ramos cells (Homo sapiens, UniProt Q9BRA2)
T2 sequence (Q9BRA2 1-123): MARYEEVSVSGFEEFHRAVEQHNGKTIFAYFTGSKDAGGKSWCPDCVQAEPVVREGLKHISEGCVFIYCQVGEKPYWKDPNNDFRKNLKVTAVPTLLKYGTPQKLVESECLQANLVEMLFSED

[3] = target: cysteines in MDA-MB-231 and Ramos cells (Homo sapiens, UniProt Q13526)
[4] = target: T3, cysteines in MDA-MB-231 and Ramos cells (Homo sapiens, UniProt Q96CM8)
T3 sequence (Q96CM8 42-615): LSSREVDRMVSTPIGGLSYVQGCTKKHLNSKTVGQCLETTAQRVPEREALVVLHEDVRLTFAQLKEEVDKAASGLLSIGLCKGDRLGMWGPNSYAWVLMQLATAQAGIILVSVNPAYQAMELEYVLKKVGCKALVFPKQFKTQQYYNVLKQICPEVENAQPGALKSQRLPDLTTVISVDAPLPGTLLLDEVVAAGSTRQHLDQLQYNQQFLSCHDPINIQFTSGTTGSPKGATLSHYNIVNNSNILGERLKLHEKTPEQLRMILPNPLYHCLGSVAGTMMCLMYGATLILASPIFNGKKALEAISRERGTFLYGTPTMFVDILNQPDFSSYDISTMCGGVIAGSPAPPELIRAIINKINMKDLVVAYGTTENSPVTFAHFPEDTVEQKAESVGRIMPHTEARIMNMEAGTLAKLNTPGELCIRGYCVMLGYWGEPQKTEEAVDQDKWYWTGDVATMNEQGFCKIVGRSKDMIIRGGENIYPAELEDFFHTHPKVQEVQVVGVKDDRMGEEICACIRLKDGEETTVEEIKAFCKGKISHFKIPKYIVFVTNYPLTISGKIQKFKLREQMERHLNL

[5] = target: cysteines in MDA-MB-231 and Ramos cells (Homo sapiens, UniProt Q15365)
[6] = target: T4, cysteines in MDA-MB-231 and Ramos cells (Homo sapiens, UniProt Q9UKF6)
T4 sequence (Q9UKF6 1-684): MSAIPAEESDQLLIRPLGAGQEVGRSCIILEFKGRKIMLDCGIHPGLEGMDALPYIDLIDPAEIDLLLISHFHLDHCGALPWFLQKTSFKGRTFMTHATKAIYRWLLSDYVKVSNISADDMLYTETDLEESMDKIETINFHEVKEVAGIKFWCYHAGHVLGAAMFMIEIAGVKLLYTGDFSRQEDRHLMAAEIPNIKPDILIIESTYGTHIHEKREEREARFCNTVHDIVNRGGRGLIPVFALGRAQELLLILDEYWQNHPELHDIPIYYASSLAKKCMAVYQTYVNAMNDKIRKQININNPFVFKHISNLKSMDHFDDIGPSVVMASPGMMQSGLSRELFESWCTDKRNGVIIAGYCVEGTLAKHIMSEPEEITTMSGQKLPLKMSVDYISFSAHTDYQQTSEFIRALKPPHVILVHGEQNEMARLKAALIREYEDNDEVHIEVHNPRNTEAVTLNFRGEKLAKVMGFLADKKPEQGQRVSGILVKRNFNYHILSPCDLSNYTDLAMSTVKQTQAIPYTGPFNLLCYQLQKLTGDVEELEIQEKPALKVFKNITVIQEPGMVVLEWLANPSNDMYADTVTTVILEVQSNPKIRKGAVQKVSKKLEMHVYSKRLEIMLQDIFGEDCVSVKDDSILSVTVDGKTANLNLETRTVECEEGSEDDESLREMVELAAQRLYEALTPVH

[7] = target: T5, cysteines in MDA-MB-231 and Ramos cells (Homo sapiens, UniProt Q9NRG0)
T5 sequence (Q9NRG0 1-131): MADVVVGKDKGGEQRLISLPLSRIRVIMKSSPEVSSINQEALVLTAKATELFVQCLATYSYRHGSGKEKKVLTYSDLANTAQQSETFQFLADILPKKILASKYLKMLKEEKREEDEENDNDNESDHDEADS

cysteines in MDA-MB-231 and Ramos cells (Homo sapiens, UniProt Q13526), sequence (Q13526 whole entry): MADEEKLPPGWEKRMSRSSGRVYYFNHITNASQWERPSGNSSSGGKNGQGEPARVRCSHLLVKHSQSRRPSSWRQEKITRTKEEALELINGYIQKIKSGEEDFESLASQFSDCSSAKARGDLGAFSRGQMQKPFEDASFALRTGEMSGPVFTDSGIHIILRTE
cysteines in MDA-MB-231 and Ramos cells (Homo sapiens, UniProt Q15365), sequence (Q15365 whole entry): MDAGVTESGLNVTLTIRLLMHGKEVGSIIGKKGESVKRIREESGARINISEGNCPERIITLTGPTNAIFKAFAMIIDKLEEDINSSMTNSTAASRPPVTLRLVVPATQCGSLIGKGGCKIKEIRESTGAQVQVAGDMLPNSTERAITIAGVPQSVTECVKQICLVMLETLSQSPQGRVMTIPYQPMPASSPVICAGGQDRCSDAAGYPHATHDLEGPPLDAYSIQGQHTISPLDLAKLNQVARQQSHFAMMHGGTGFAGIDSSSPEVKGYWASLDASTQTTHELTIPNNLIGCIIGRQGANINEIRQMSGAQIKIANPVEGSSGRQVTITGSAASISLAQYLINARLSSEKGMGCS

Row | SMILES | isoTOP-ABPP ratio Q15233_C145 ([1]; 200 μM, insitu, 231) | isoTOP-ABPP ratio Q13526_C113 ([3]; 200 μM, insitu, 231) | isoTOP-ABPP ratio Q15365_C194 ([5]; 200 μM, insitu, 231) | isoTOP-ABPP ratio Q9NRG0_C55 ([7]; 200 μM, insitu, 231) | isoTOP-ABPP ratio Q9BRA2_C43 ([2]; 200 μM, insitu, 231) | isoTOP-ABPP ratio Q96CM8_C64 ([4]; 200 μM, insitu, 231) | isoTOP-ABPP ratio Q9UKF6_C498 ([6]; 200 μM, insitu, 231) | other results
1 | COc1ccc(C2CC(c3cccs3)=NN2C(=O)CCl)cc1 (stereo not shown) [compound 4] | – | – | – | – | – | – | – | isoTOP-ABPP reactivity Q15233_C145 NONO ([1]; 100 μM in situ 231): 1.6; isoTOP-ABPP reactivity Q9BRA2_C43 TXNDC17 ([2]; 100 μM in situ 231): 3.5; isoTOP-ABPP reactivity Q13526_C113 PIN1 ([3]; 100 μM in situ 231): 3.4; isoTOP-ABPP reactivity Q96CM8_C64 ACSF2 ([4]; 100 μM in situ 231): 20.0; isoTOP-ABPP reactivity Q15365_C194 PCBP1 ([5]; 100 μM in situ 231): 1.4; isoTOP-ABPP reactivity Q9UKF6_C498 CPSF3 ([6]; 100 μM in situ 231): 3.5; isoTOP-ABPP reactivity Q9NRG0_C55 CHRAC1 ([7]; 100 μM in situ 231): 20.0
2 | O=C(CCl)Nc1cccc2ncccc12 [compound 51] | 1.6 | 1.4 | 0.6 | 1.1 | – | – | – | –
3 | CC1CCc2ccccc2N1C(=O)CCl (stereo not shown) [compound 45] | 3.7 | 10.0 | 1.5 | 20.0 | 8.0 | 20.0 | 20.0 | –
4 | O=C(CCl)NC(=O)NC12CC3CC(CC(C3)C1)C2 [compound 12] | 2.4 | 0.6 | 1.3 | 20.0 | 20.0 | 17.9 | 4.1 | –
5 | O=C(CCl)N1CCN(S(=O)(=O)c2ccccc2F)CC1 [compound 10] | – | 2.0 | 1.6 | 2.7 | 20.0 | 20.0 | 20.0 | isoTOP-ABPP ratio Q15233_C145 ([1]; 200 μM, insitu, ramos): 2.2; isoTOP-ABPP ratio Q13526_C113 ([3]; 200 μM, insitu, ramos): 1.3; isoTOP-ABPP ratio Q15365_C194 ([5]; 200 μM, insitu, ramos): 2.0; isoTOP-ABPP ratio Q9UKF6_C498 ([6]; 200 μM, insitu, ramos): 2.8
6 | O=C(CCl)N1CCN(CC(=O)N2CCOCC2)CC1 [compound 29] | – | – | – | – | – | – | – | isoTOP-ABPP ratio Q9BRA2_C43 ([2]; 200 μM, insitu, ramos): 2.3; isoTOP-ABPP ratio Q13526_C113 ([3]; 200 μM, insitu, ramos): 1.0; isoTOP-ABPP ratio Q96CM8_C64 ([4]; 200 μM, insitu, ramos): 2.3; isoTOP-ABPP ratio Q15365_C194 ([5]; 200 μM, insitu, ramos): 1.0; isoTOP-ABPP ratio Q9UKF6_C498 ([6]; 200 μM, insitu, ramos): 2.3; isoTOP-ABPP ratio Q9NRG0_C55 ([7]; 200 μM, insitu, ramos): 1.5
7 | CC(C)CCOCCNC(=O)CCl [compound 27] | 1.2 | 0.5 | 0.5 | 0.9 | 20.0 | 1.8 | 1.5 | –
8 | O=C(CCl)N1CCC(Cc2ccccc2)CC1 [compound 9] | – | – | – | – | – | – | – | isoTOP-ABPP reactivity Q15233_C145 NONO ([1]; 200 μM, insitu, 231): 1.4; isoTOP-ABPP reactivity Q9BRA2_C43 TXNDC17 ([2]; 200 μM, insitu, 231): 20.0; isoTOP-ABPP reactivity Q13526_C113 PIN1 ([3]; 200 μM, insitu, 231): 3.3; isoTOP-ABPP reactivity Q15365_C194 PCBP1 ([5]; 200 μM, insitu, 231): 10.1; isoTOP-ABPP reactivity Q9NRG0_C55 CHRAC1 ([7]; 200 μM, insitu, 231): 2.9
9 | O=C(CCl)NC12CC3CC(CC(C3)C1)C2 [compound 21] | – | 0.7 | 1.1 | – | 16.0 | 2.0 | 1.4 | –
10 | COc1ccc2c(c1)CCCN2C(=O)CCl [compound 2] | – | – | – | – | – | – | – | isoTOP-ABPP reactivity Q9BRA2_C43 TXNDC17 ([2]; 200 μM, insitu, 231): 15.5; isoTOP-ABPP reactivity Q13526_C113 PIN1 ([3]; 200 μM, insitu, 231): 20.0; isoTOP-ABPP reactivity Q96CM8_C64 ACSF2 ([4]; 200 μM, insitu, 231): 20.0; isoTOP-ABPP reactivity Q15365_C194 PCBP1 ([5]; 200 μM, insitu, 231): 5.1; isoTOP-ABPP reactivity Q9UKF6_C498 CPSF3 ([6]; 200 μM, insitu, 231): 6.2; isoTOP-ABPP reactivity Q9NRG0_C55 CHRAC1 ([7]; 200 μM, insitu, 231): 20.0
11 | Cn1cc(S(=O)(=O)N2CCOCC2)cc1C(=O)NC(=O)CCl [compound 11] | – | – | – | – | – | – | – | isoTOP-ABPP ratio Q15233_C145 ([1]; 100 μM in situ 231): 1.2; isoTOP-ABPP ratio Q9BRA2_C43 ([2]; 100 μM in situ 231): 17.7; isoTOP-ABPP ratio Q13526_C113 ([3]; 100 μM in situ 231): 0.7; isoTOP-ABPP ratio Q96CM8_C64 ([4]; 100 μM in situ 231): 1.5; isoTOP-ABPP ratio Q15365_C194 ([5]; 100 μM in situ 231): 0.4; isoTOP-ABPP ratio Q9UKF6_C498 ([6]; 100 μM in situ 231): 1.3; isoTOP-ABPP ratio Q9NRG0_C55 ([7]; 100 μM in situ 231): 1.1
12 | COc1ccccc1OCCNC(=O)CCl [compound 28] | 1.1 | 0.7 | – | – | – | – | – | –
13 | O=C(CCl)NCCc1c[nH]c2ccccc12 [compound 13] | 1.0 | 0.9 | 0.9 | 1.2 | 20.0 | 1.4 | – | isoTOP-ABPP ratio Q15233_C145 ([1]; 200 μM, insitu, ramos): 1.1; isoTOP-ABPP ratio Q9BRA2_C43 ([2]; 200 μM, insitu, ramos): 5.2; isoTOP-ABPP ratio Q13526_C113 ([3]; 200 μM, insitu, ramos): 1.0; isoTOP-ABPP ratio Q15365_C194 ([5]; 200 μM, insitu, ramos): 1.4; isoTOP-ABPP ratio Q9UKF6_C498 ([6]; 200 μM, insitu, ramos): 1.4
14 | Cc1ccc(C=C(C#N)C(=O)NCCN2CCOCC2)cc1 [compound 41] | 1.1 | 0.6 | 0.3 | 0.9 | 0.6 | 0.8 | 1.0 | –
15 | C=CC(=O)Nc1cc(F)c(N2CCN(C(=O)OC(C)(C)C)CC2)c(F)c1 [compound 38] | 0.9 | 1.0 | 15 | 1.0 | 1.1 | 1.1 | – | –
16 | C=CC(=O)N(Cc1cccnc1)c1cc(C(F)(F)F)cc(C(F)(F)F)c1 [compound 31] | 0.7 | 0.6 | 0.7 | – | 0.6 | 0.8 | – | isoTOP-ABPP ratio Q15233_C145 ([1]; 200 μM, insitu, ramos): 0.8; isoTOP-ABPP ratio Q13526_C113 ([3]; 200 μM, insitu, ramos): 1.1; isoTOP-ABPP ratio Q15365_C194 ([5]; 200 μM, insitu, ramos): 1.6; isoTOP-ABPP ratio Q9NRG0_C55 ([7]; 200 μM, insitu, ramos): 1.6
